Test results as given in ChEMBL document CHEMBL5257102, “Enzymatic transformation of esculetin as a potent class of α-glucosidase inhibitors” (Bioorg Med Chem Lett, 2023).

Tests used:
Type in all cases: protein assay
Alpha glucosidase [1] = molecular target: T1, Alpha glucosidase (Homo sapiens, UniProt O43451+P10253+P14410+Q2M2H8); test: Inhibition of Alpha-glucosidase (unknown origin)
Alpha glucosidase [2] = molecular target: T1, Alpha glucosidase; test: Competitive inhibition of Alpha-glucosidase (unknown origin) by Lineweaver-Burk plot analysis
Alpha glucosidase [3] = molecular target: T1, Alpha glucosidase; test: Inhibition of Alpha-glucosidase (unknown origin) by Lineweaver-Burk plot analysis; conditions: dose 4.0 µM

IC50 (Alpha glucosidase [1])	Ki (Alpha glucosidase [2])	inhibition (Alpha glucosidase [3])	Compound
4.2 µM	–	–	O=c1ccc2c(-c3c(O)c(O)c(-c4c(O)c(O)cc5ccc(=O)oc45)c4oc(=O)ccc34)c(O)c(O)cc2o1
> 500 µM	–	–	O=c1ccc2cc(O)c(O)cc2o1 [ESCULETIN]
6.4 µM	3.4 µM	–	O=c1ccc2cc(O)c(O)c(-c3c(O)c(O)cc4ccc(=O)oc34)c2o1
17.6 µM	10.1 µM	–	O=c1ccc2c(-c3c(O)c(O)cc4ccc(=O)oc34)c(O)c(O)cc2o1

Second part, the compound before the results:

Compound	IC50 (Alpha glucosidase [1])	Ki (Alpha glucosidase [2])	inhibition (Alpha glucosidase [3])
O=c1ccc2c(-c3c(O)c(O)c(-c4c(O)c(O)cc5oc(=O)ccc45)c4oc(=O)ccc34)c(O)c(O)cc2o1	4.7 µM	1.9 µM	–
O=c1ccc2c(-c3c(O)c(O)c(-c4c(O)c(O)c(-c5c(O)c(O)cc6oc(=O)ccc56)c5oc(=O)ccc45)c4oc(=O)ccc34)c(O)c(O)cc2o1	2.3 µM	0.9 µM	–
O=c1ccc2c(Oc3cc4oc(=O)ccc4c(-c4c(O)c(O)c(-c5c(O)c(O)c(-c6c(O)c(O)cc7oc(=O)ccc67)c6ccc(=O)oc56)c5ccc(=O)oc45)c3O)c(O)c(O)cc2o1	0.7 µM	0.2 µM	Dose-Dependent Effect
